According to patent US9394300B2, “Quinolone derivatives” (Cadila Healthcare Limited, priority 2012, dated 2016):

What follows are molecules tested on C57 Mice (assay: Estimating hemoglobin levels in mice). Details: oral once daily for 7 consecutive days at 20 mg/kg, whole blood on 8th day.
Format: in vivo
Method: (2) Protocol for Estimating Hemoglobin Levels in Mice
C57 mice were administered compounds of the present invention at 10 ml/kg by oral route daily once in the morning for 7 consecutive days at 20 mg/kg. On 8th day animals were bled by retro-orbital puncture under light ether anesthesia in microfuge tubes containing 2% EDTA (10 μl/100 μl of blood) for whole blood. Hemoglobin, Reticulocyte count and RBC count were measured using standard procedures.

Row | SMILES | Hemoglobin (g/dL) 20 mg/kg compound [g/dL]
1 | C=CCOn1c(=O)c(C(=O)NCC(=O)O)c(O)c2cc(Oc3ccccc3)ccc21 [Example 8, 2-(1-(allyloxy)-4-hydroxy-2-oxo-6-phenoxy-1,2-dihydroquinoline-3-carboxamido)acetic acid] | 15.8
2 | C=CCOn1c(=O)c(C(=O)NCC(=O)O)c(O)c2sccc21 [Example 10, 2-(4-(allyloxy)-7-hydroxy-5-oxo-4,5-dihydrothieno[3,2-b]pyridine-6-carboxamido)acetic acid] | 13.8
3 | CC(C)On1c(=O)c(C(=O)NCC(=O)O)c(O)c2ccccc21 [Example 25, 2-(4-hydroxy-1-isopropoxy-2-oxo-1,2-dihydroquinoline-3-carboxamido)acetic acid] | 14.9
4 | CC(C)COn1c(=O)c(C(=O)NCC(=O)O)c(O)c2ccccc21 [Example 28, 2-(4-hydroxy-1-isobutoxy-2-oxo-1,2-dihydroquinoline-3-carboxamido)acetic acid] | 16.9
5 | O=C(O)CNC(=O)c1c(O)c2nccnc2n(OCc2c(F)cccc2F)c1=O [Example 36, 2-(5-((2,6-difluorobenzyl)oxy)-8-hydroxy-6-oxo-5,6-dihydropyrido[2,3-b]pyrazine-7-carboxamido)acetic acid] | 14.2
6 | CCC(CC)On1c(=O)c(C(=O)NCC(=O)O)c(O)c2ccccc21 [Example 38, 2-(4-hydroxy-2-oxo-1-(pentan-3-yloxy)-1,2-dihydroquinoline-3-carboxamido)acetic acid] | 15.8
7 | CCCOn1c(=O)c(C(=O)NCC(=O)O)c(O)c2scc(C)c21 [Example 40, 2-(7-hydroxy-3-methyl-5-oxo-4-propoxy-4,5-dihydrothieno[3,2-b]pyridine-6-carboxamido)acetic acid] | 16.1
8 | Cc1csc2c(O)c(C(=O)NCC(=O)O)c(=O)n(OCc3c(F)cccc3F)c12 [Example 42, 2-(4-((2,6-difluorobenzyl)oxy)-7-hydroxy-3-methyl-5-oxo-4,5-dihydrothieno[3,2-b]pyridine-6-carboxamido)acetic acid] | 16.1
9 | O=C(O)CNC(=O)c1c(O)c2ccccc2n(OCC2CCCCC2)c1=O [Example 44, 2-(1-(cyclohexylmethoxy)-4-hydroxy-2-oxo-1,2-dihydroquinoline-3-carboxamido)acetic acid] | 16.1
10 | C[C@H](NC(=O)c1c(O)c2ccccc2n(OCC2CC2)c1=O)C(=O)O [Example 45, (S)-2-(1-(cyclopropylmethoxy)-4-hydroxy-2-oxo-1,2-dihydroquinoline-3-carboxamido)propanoic acid] | 15.7
11 | O=C(O)CNC(=O)c1c(O)c2cncnc2n(OCc2c(F)cccc2F)c1=O [Example 46, 2-(8-((2,6-difluorobenzyl)oxy)-5-hydroxy-7-oxo-7,8-dihydropyrido[2,3-d]pyrimidine-6-carboxamido)acetic acid] | 14.2
12 | O=C(N[C@H](C(=O)O)c1ccccc1)c1c(O)c2ccccc2n(OCC2CC2)c1=O [Example 47, (S)-2-(1-(cyclopropylmethoxy)-4-hydroxy-2-oxo-1,2-dihydroquinoline-3-carboxamido)-2-phenylacetic acid] | 14.2
13 | C=CCOn1c(=O)c(C(=O)NCC(=O)O)c(O)c2ccc(N3CCOCC3)cc21 [Example 48, 2-(1-(allyloxy)-4-hydroxy-7-morpholino-2-oxo-1,2-dihydroquinoline-3-carboxamido)acetic acid] | 13.9
14 | CC(C)(C)OC(=O)CNC(=O)c1c(O)c2ccccc2n(OCC2CC2)c1=O [Example 49, tert-butyl-2-(1-(cyclopropylmethoxy)-4-hydroxy-2-oxo-1,2-dihydroquinoline-3-carboxamido)acetate] | 14.1
15 | COC(=O)CNC(=O)c1c(O)c2ccccc2n(OCC2CC2)c1=O [Example 53, methyl-2-(1-(cyclopropylmethoxy)-4-hydroxy-2-oxo-1,2-dihydroquinoline-3-carboxamido)acetate] | 15.2
16 | CC(C)C[C@H](NC(=O)c1c(O)c2ccccc2n(OCC2CC2)c1=O)C(=O)O [Example 54, (S)-2-(1-(cyclopropylmethoxy)-4-hydroxy-2-oxo-1,2-dihydroquinoline-3-carboxamido)-4-methylpentanoic acid] | 13.7
17 | CC(C)[C@H](NC(=O)c1c(O)c2ccccc2n(OCC2CC2)c1=O)C(=O)O [Example 55, (S)-2-(1-(cyclopropylmethoxy)-4-hydroxy-2-oxo-1,2-dihydroquinoline-3-carboxamido)-3-methylbutanoic acid] | 13
18 | O=C(O)CCNC(=O)c1c(O)c2ccccc2n(OCC2CC2)c1=O [Example 56, 3-(1-(cyclopropylmethoxy)-4-hydroxy-2-oxo-1,2-dihydroquinoline-3-carboxamido)propanoic acid] | 14.4
19 | O=C(N[C@@H](Cc1ccccc1)C(=O)O)c1c(O)c2ccccc2n(OCC2CC2)c1=O [Example 58, (S)-2-(1-(cyclopropylmethoxy)-4-hydroxy-2-oxo-1,2-dihydroquinoline-3-carboxamido)-3-phenylpropanoic acid] | 14
20 | O=C(O)CNC(=O)c1c(O)c2ccccc2n(OCC(F)(F)F)c1=O [Example 69, 2-(4-hydroxy-2-oxo-1-(2,2,2-trifluoroethoxy)-1,2-dihydroquinoline-3-carboxamido)acetic acid] | 15.7
21 | O=C(O)CNC(=O)c1c(O)c2ccncc2n(OCC2CC2)c1=O [Example 70, 2-(1-(cyclopropylmethoxy)-4-hydroxy-2-oxo-1,2-dihydro-1,7-naphthyridine-3-carboxamido)acetic acid] | 13.9
22 | CCCOn1c(=O)c(C(=O)N[C@@H](C)C(=O)O)c(O)c2ccccc21 [Example 73, (S)-2-(4-hydroxy-2-oxo-1-propoxy-1,2-dihydroquinoline-3-carboxamido)propanoic acid] | 16.2
23 | O=C(O)CNC(=O)c1c(O)c2ccccc2n(OCC/C=C/C2CC2)c1=O [Example 76, 2-(1-((4-cyclopropylbut-3-en-1-yl)oxy)-4-hydroxy-2-oxo-1,2-dihydroquinoline-3-carboxamido)acetic acid] | 17.1
24 | CCCC(CCC)On1c(=O)c(C(=O)NCC(=O)O)c(O)c2ccccc21 [Example 77, 2-(1-(heptan-4-yloxy)-4-hydroxy-2-oxo-1,2-dihydroquinoline-3-carboxamido)acetic acid] | 15.5
25 | O=C(O)CNC(=O)c1c(O)c2sccc2n(OCC2CC2)c1=O [Example 79, 2-(4-(cyclopropylmethoxy)-7-hydroxy-5-oxo-4,5-dihydrothieno[3,2-b]pyridine-6-carboxamido)acetic acid] | 14.3
